31 compounds from patent US4622337A, “2,2-dimethyl-3-(2-halovinyl)cyclopropane carboxlic acid ester pesticides” (priority 1972, dated 1986) can be followed below.

For test [1], the system named is female flies (houseflies). Description: Synergisability with sesamex, 2 μg per fly pretreatment. Format: in vivo, Musca domestica. The conditions noted are these: for Approx. Synergistic factor: sesamex, 2 μg. per fly; for LD 50 active compound + synergist: pretreated with 2 μg. per fly sesamex; for LD 50 active compound only: untreated flies. The protocol: (§1) Female flies were treated on the thorax with a one microliter drop of insecticide dissolved in acetone. Two replicates of 15 flies were used at each dose rate and 6 dose rates were used per compound under test. After treatment, the flies were maintained at a temperature of 20° C.±1° and kill was assessed 24 and 48 hours after treatment. LD50 values were calculated in micrograms of insecticide per fly and relative toxicities were calculated from the inverse ratios of the LD50 values.

Test [2] deals with houseflies (Musca domestica). The experiment in a line: Relative toxicity to houseflies, topical drop on thorax. Type of test: in vivo. The conditions noted are these: 5-benzyl-3-furylmethyl (1R)-trans-chrysanthemate = 1000; inverse ratio of LD50; topical, female flies. The protocol:
(§2) The toxicity of these new esters was tested by the procedure described in detail in our above mentioned application and the following results were obtained:
(§3) The insecticidal acitivity of the esters of the invention was assessed against houseflies and mustard beetles using the following techniques:
as §1, with “values. (see Sawicki et al, Bulletin of the World Health Organization, 35,893, (1966) and Sawicki et al, Entomologia and Exp. Appl. 10, 253, (1967)).” for “values.”
(§4) Relative toxicities were calculated by comparison with 5-benzyl-3-furylmethyl(1R)-trans-chrysanthemate which is one of the most toxic chrysanthemate esters known to houseflies and mustard beetles, its toxicity being about 24 times that of allethrin to houseflies and 65 times that of allethrin to mustard beetles.

Test [3] relates to mustard beetles (Phaedon cochleariae Fab). The experiment in a line: Relative toxicity to mustard beetles, topical micro drop. Type of test: in vivo. The conditions noted are these: 5-benzyl-3-furylmethyl (1R)-trans-chrysanthemate = 1000; inverse ratio of LD50; topical, 48 hours. The protocol: as §2, §3
Acetone solutions of the test compound were applied ventrally to adult mustard beetles using a micro drop applicator. The treated insects were maintained for 48 hours after which time kill is assessed. Two replicates of 40 to 50 mustard beetles were used at each dose level and 3 to 4 dose levels were used for each compound. Again, LD50 values were calculated and relative toxicities were calculated for the inverse ratios of LD50 (see Elliott et al, J. Sci. Food Agric. 20, 561, (1969)).
as §4

The structures appear in SMILES notation.

As to `CC(C)=CC1C(C(=O)OCc2coc(Cc3ccccc3)c2)C1(C)C` (racemic) [5-benzyl-3-furyl methyl (1RS)--cis-trans-chrysanthemate, reference compound], the “Approx. Synergistic factor” value in test [1] is recorded as roughly 13.
As for `CC1(C)[C@H](C=C(Cl)Cl)[C@H]1C(=O)OCc1cccc(Oc2ccccc2)c1` (racemic) [Compound P21F, 3-Phenoxybenzyl(1RS)-trans-2,2-dimethyl-3-(2,2-dichlorovinyl)cyclopropane carboxylate], in test [1], the “LD 50 active compound + synergist” value stood at 0.00033 μg. per female fly, the “Approx. Synergistic factor” value is given as roughly 39 and the “LD 50 active compound only” value was 0.013 μg. per female fly. In addition, the “Relative Toxicity, Houseflies” value in test [2] was 400. Besides, the “Relative Toxicity, Mustard Beetles” value in test [3] is 790.
`CC1(C)[C@H](C(=O)OCc2coc(Cc3ccccc3)c2)[C@@H]1C=C(Cl)Cl` (relative stereo) [Compound P21D]: in test [1], the “LD 50 active compound + synergist” value turned out to be 0.00046 μg. per female fly, the “Approx. Synergistic factor” value is given as roughly 12 and the “LD 50 active compound only” value is listed as 0.0058 μg. per female fly. For the same compound, the “Relative Toxicity, Houseflies” value in test [2] was 1200. Further, the “Relative Toxicity, Mustard Beetles” value in test [3] amounted to 1700.
`CC/C=C\[C@H]1[C@@H](C(=O)OCc2coc(Cc3ccccc3)c2)C1(C)C` [Compound A cis]: in test [1], the “LD 50 active compound + synergist” value worked out at 0.0012 μg. per female fly, the “Approx. Synergistic factor” value is reported as roughly 6 and the “LD 50 active compound only” value was determined as 0.0074 μg. per female fly.
For the compound `CCCOC(=O)C(Cl)=C[C@@H]1[C@@H](C(=O)OCc2coc(Cc3ccccc3)c2)C1(C)C` [Compound P24C], the “Relative Toxicity, Houseflies” value in test [2] was found to be 53. The “Relative Toxicity, Mustard Beetles” value in test [3] was 120.
Taken in the same sequence, the figures for `CCOC(=O)C(Br)=C[C@@H]1[C@@H](C(=O)OCc2coc(Cc3ccccc3)c2)C1(C)C` [Compound P24D] were 450 and 290.
The corresponding values for `CC1(C)[C@H](C(=O)OCc2cccc(Oc3ccccc3)c2)[C@@H]1C=C(Br)Br` [Compound P29A, 3-phenoxybenzyl(1R)cis-2,2-dimethyl-3-(2,2-dibromovinyl)cyclopropane carboxylate] are 2200 and 1600.
For the compound `CC1(C)[C@H](C(=O)OC(C#N)c2cccc(Oc3ccccc3)c2)[C@@H]1C=C(Br)Br` (stereo partly drawn) [Compound P29B, (αRS)-cyano-3-phenoxybenzyl(1R)cis-2,2-dimethyl-3-(2,2-dibromovinyl)cyclopropane carboxylate], the “Relative Toxicity, Houseflies” value in test [2] is reported as 10000. The “Relative Toxicity, Mustard Beetles” value in test [3] is listed as 11000.
Taken in the same sequence, the figures for `CC1(C)[C@H](C=C(Br)Br)[C@H]1C(=O)OCc1cccc(Oc2ccccc2)c1` [Compound P29C, 3-phenoxybenzyl(1R)trans-2,2-dimethyl-3-(2,2-dibromovinyl)-cyclopropane carboxylate] were 1100 and 4000.
On to `CC1(C)[C@H](C=C(Br)Br)[C@H]1C(=O)OC(C#N)c1cccc(Oc2ccccc2)c1` (stereo partly drawn) [Compound P29D, (αRS)-cyano-3-phenoxybenzyl(1R)trans-2,2-dimethyl-3-(2,2-dibromovinyl)-cyclopropane carboxylate], for which, in test [2], the “Relative Toxicity, Houseflies” value came to 4100. The “Relative Toxicity, Mustard Beetles” value in test [3] came to 5200.
The corresponding values for `CC1(C)[C@H](C=C(Cl)Cl)[C@H]1C(=O)OC(C#N)c1cccc(Oc2ccccc2)c1` (stereo partly drawn) [Compound P29E, (αRS)-cyano-3-phenoxybenzyl(1R)trans-2,2-dimethyl-3-(2,2-dichlorovinyl)-cyclopropane carboxylate] are 3900 and 3100.
`CC1(C)[C@H](C(=O)OC(C#N)c2cccc(Oc3ccccc3)c2)[C@@H]1C=C(Cl)Cl` (stereo partly drawn) [Compound P29J, (αRS)-cyano-3-phenoxybenzyl(1R)-cis-2,2-dimethyl-3-(2,2-dichlorovinyl)-cyclopropane carboxylate]: in test [2], the “Relative Toxicity, Houseflies” value was determined as 11000. Besides, the “Relative Toxicity, Mustard Beetles” value in test [3] was determined as 4200.
Taken in the same sequence, the figures for `CC1(C)[C@H](C=C(Cl)Cl)[C@@H]1C(=O)OC(C#N)c1cccc(Oc2ccccc2)c1` (stereo partly drawn) [Compound P29K, (αRS)-cyano-3-phenxoybenzyl(1S)-cis-2,2-dimethyl-3-(2,2-dichlorovinyl)-cyclopropane carboxylate] were 140 and 130.
`CC1(C)[C@H](C=C(F)F)[C@H]1C(=O)OCc1coc(Cc2ccccc2)c1` [Compound P31A]: the “Relative Toxicity, Houseflies” value in test [2] was determined as 3900. The “Relative Toxicity, Mustard Beetles” value in test [3] was 1900.
The corresponding values for `CC1(C)[C@H](C=C(F)F)[C@H]1C(=O)OCc1cccc(Oc2ccccc2)c1` [Compound P31B] are 620 and 270.
For the compound `CC1(C)[C@H](C=C(F)F)[C@H]1C(=O)OC(C#N)c1cccc(Oc2ccccc2)c1` (some centres unmarked) [Compound P31C], the “Relative Toxicity, Houseflies” value in test [2] worked out at 840. Moreover, in test [3], the “Relative Toxicity, Mustard Beetles” value is 730.
The corresponding values for `CC1(C)[C@H](C(=O)OCc2coc(Cc3ccccc3)c2)[C@@H]1C=C(F)F` [Compound P31D] are 2300 and 1300.
The corresponding values for `CC1(C)[C@H](C(=O)OCc2cccc(Oc3ccccc3)c2)[C@@H]1C=C(F)F` [Compound P31E] are 1800 and 850.
Taken in the same sequence, the figures for `CC1(C)[C@H](C(=O)OC(C#N)c2cccc(Oc3ccccc3)c2)[C@@H]1C=C(F)F` (some centres unmarked) [Compound P31F] were 1200 and 2200.
For the compound `CC1(C)[C@H](C(=O)OCc2cccc(C(=O)c3ccccc3)c2)[C@@H]1C=C(Br)Br` [Compound P39A, 3-benzoylbenzyl(1R)cis-2,2-dimethyl-3-(2,2-dibromovinyl)-cyclopropane carboxylate], in test [2], the “Relative Toxicity, Houseflies” value came to 50. The “Relative Toxicity, Mustard Beetles” value in test [3] was 830.
`CC1(C)[C@H](C=C(F)F)[C@H]1C(=O)OCc1cccc(C(=O)c2ccccc2)c1` [Compound P39C, 3-benzoylbenzyl(1R)trans-2,2-dimethyl-3-(2,2-difluorovinyl)-cyclopropane carboxylate]: the “Relative Toxicity, Houseflies” value in test [2] came out at 6. The “Relative Toxicity, Mustard Beetles” value in test [3] was 50.
Turning to `CC1(C)[C@H](C(=O)OCc2cccc(C(=O)c3ccccc3)c2)[C@@H]1C=C(F)F` [Compound P39D, 3-benzoylbenzyl(1R)-cis-2,2-dimethyl-3-(2,2-difluorovinyl)-cyclopropane carboxylate], the “Relative Toxicity, Houseflies” value in test [2] stood at 20. Also, the “Relative Toxicity, Mustard Beetles” value in test [3] was 500.
As for `CC/C=C\[C@@H]1[C@@H](C(=O)OCc2cccc(Cc3ccccc3)c2)C1(C)C` [Compound S], the “Relative Toxicity, Houseflies” value in test [2] is listed as 120. Besides, the “Relative Toxicity, Mustard Beetles” value in test [3] amounted to 170.
The corresponding values for `CC1(C)[C@H](C=CCl)[C@H]1C(=O)OCc1coc(Cc2ccccc2)c1` [K] are 1300 and 1600.
The corresponding values for `C#CC(OC(=O)[C@@H]1[C@H](C=C(Br)Br)C1(C)C)c1cccc(Oc2ccccc2)c1` (some centres unmarked) [ME7] are 1100 and 5000.
Taken in the same sequence, the figures for `C=CCC1=C(C)C(OC(=O)[C@@H]2[C@@H](C=C(F)F)C2(C)C)CC1=O` (some centres unmarked) [ME9] were 50 and 50.
`C=CCC1=C(C)C(OC(=O)[C@@H]2[C@H](C=C(F)F)C2(C)C)CC1=O` (some centres unmarked) [ME10]: in test [2], the “Relative Toxicity, Houseflies” value was found to be 40. In addition, the “Relative Toxicity, Mustard Beetles” value in test [3] is reported as 30.
The corresponding values for `CC1(C)C(C=C(Br)Br)C1C(=O)OC(C#N)c1cccc(Oc2ccccc2)c1` [P29B (non-crystalline isomer), (αR)-cyano-3-phenoxybenzyl(1R)cis-2,2-dimethyl-3-(2,2-dibromovinyl)cyclopropane carboxylate] are 3500 and 4000.
On to `C=C/C=C\CC1=C(C)[C@@H](OC(=O)[C@@H]2[C@@H](C=C(C)C)C2(C)C)CC1=O` [Pyrethrin I, reference compound], for which, in test [2], the “Relative Toxicity, Houseflies” value is 12. The “Relative Toxicity, Mustard Beetles” value in test [3] is 1600.
Taken in the same sequence, the figures for `C=CCC1=C(C)C(OC(=O)[C@@H]2[C@@H](/C=C\CC)C2(C)C)CC1=O` (some centres unmarked) [Q] were 60 and 69.
The corresponding values for `CC/C=C\[C@@H]1[C@@H](C(=O)OCc2cccc(Oc3ccccc3)c2)C1(C)C` [T] are 240 and 300.
